Values joined by “and” are separate entries in the source; they are usually repeats but may differ in a detail not shown here. Identical values can stand only once.
Assays:
AKR1C3 [1] = molecular target: T1, AKR1C3 (Homo sapiens, UniProt P42330); test: AKR1C3 enzymatic inhibition assay (∆4-androstene-3,17-dione to testosterone); format: biochemical; conditions: 10 µM compound, ∆4-androstene-3,17-dione reduction, triplicates, mean ± SD
T1 construct: GST (own knowledge: pGEX vectors encode N-terminal GST); made in house; host or cells: E. coli BL21 DE3 Codon Plus RP, lysate
T1 sequence (P42330 1-323): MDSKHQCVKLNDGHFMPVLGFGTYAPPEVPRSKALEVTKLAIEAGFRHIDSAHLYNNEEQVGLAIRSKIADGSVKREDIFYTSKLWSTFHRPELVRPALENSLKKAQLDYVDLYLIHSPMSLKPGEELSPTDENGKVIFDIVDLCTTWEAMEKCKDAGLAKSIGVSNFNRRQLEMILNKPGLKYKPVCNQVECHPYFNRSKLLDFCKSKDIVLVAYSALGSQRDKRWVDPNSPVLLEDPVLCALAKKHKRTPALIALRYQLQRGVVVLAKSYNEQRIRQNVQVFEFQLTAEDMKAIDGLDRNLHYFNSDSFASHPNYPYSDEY
Text: For enzymatic assays and inhibitor testing, all enzymes were cloned into bacterial or mammalian expression vectors. AKR1C3 and the human hydroxysteroid dehydrogenases HSD17B1, HSD17B2, HSD17B4 (SDR domain), HSD17B7, and HSD17B10 were cloned into a pGEX vector as described in [71, 72]. The coding sequences for AKR1C1, AKR1C2, and AKR1C4 were cloned by Gateway technology into the pcDNA3-N-MycDest vector according to the manufacturer’s instructions (Life Technologies, Carlsbad, CA, USA). The p11 plasmid coding for HSD17B14 (S205 variant) was a gift from Udo Opperman SGC Oxford, UK. For assays with HSD17B3, HEK293 cells stably expressing HSD17B3 were used. Enzymes were expressed in E. coli BL21 DE3 or E. coli BL21 DE3 Codon Plus RP (Stratagene, San Diego, CA, USA) or in HEK293 cells as described in [71, 72, 73]. Bacterial and cell pellets were stored at −20 °C and −80 °C, respectively, until use.
Inhibition assays were carried out as described in [71, 74]. […] For a detailed assay setup, see Supplementary Table S6. The incubation at 37 °C was stopped with 0.21 M ascorbic acid in methanol:acetic acid 99:1 (v:v) after the time needed to convert approximately 30% of the substrate in a control assay with 1% DMSO, without inhibitor candidate. Substrates and products were extracted from the reaction mixture by solid-phase extraction using C18 cartridges (Phenomenex, Aschaffenburg, Germany) and separated by RP–HPLC in a Beckman–Coulter HPLC Gold system, using the Luna 5 µm C18(2), 125 × 4.0 mm column (Phenomenex). The mobile phases used were H2O:ACN (57:43 (v:v); for assays of estrone (E1) to oestradiol (E2), E2 to E1, and ∆4-androstene-3,17-dione to testosterone conversion), H2O:ACN (49:51 (v:v); for assays of progesterone to 20α-hydroxyprogesterone conversion), and H2O:MeOH (35:65 (v:v) for assays of dihydrotestosterone (DHT) to 3α-androstanediol conversion) at a flow rate of 1 mL/min. Radioactivity was detected by online scintillation counting by using a radioactivity monitor (LB506D, Berthold Technologies, Bad Wildbad, Germany). Conversion of substrates to products was determined by integration of the peak area of the substrate and product peaks in percent. For calculation of inhibition, the conversion of control assay (assay without inhibitor) was set to 0% inhibition. All assays were run in triplicates, and mean values ± SD are reported.
For the determination of IC50 values, percent inhibition values were fitted using the Enzyme Kinetics module of SigmaPlot 13.0 and the one-site ligand-binding model according to the formula f = Bmax * abs(x)/(Kd + abs(x)).
Table S6: Activity assay setup […]
E1: estrone; E2: 17β-estradiol, A: Δ4-androstene-3,17-dione; T: testosterone, P: progesterone, 20αOHP: 20α-hydroxyprogesterone, DHT: dihydrotestosterone, 3α-Adiol: 3α-androstanediol, NaPi: 100 mM Na-phosphate buffer; PI: C0mplete protease inhibitor (Roche);. E.coli - Expression in E.coli BL21 DE3 Codon Plus RP except E.coli BL21 DE3 […]
application to antiparasitic and natural product synthesis. Eur J Org Chem […]
Synthesis of Xanthohumol analogues and discovery of potent thioredoxin reductase inhibitor as potential anticancer agent. J Med Chem 2015, 58,

LNCaP = test system: LNCaP; parameters: method as in PMID 12706007; conditions: human prostate cancer cell line LNCaP; read-out: IC50 growth inhibition LNCaP; cited from earlier work
DU145 = test system: DU145; parameters: method as in PMID 12706007; conditions: human prostate cancer cell line DU145; read-out: IC50 growth inhibition DU145; cited from earlier work
17β-HSD = test system: 17β-HSD; parameters: method as in PMID 11205867; conditions: human placental microsomes, compound concentration 10 µM; cited from earlier work
AKR1C3 [2] = conditions: co-crystallised ligand of PDB 3UWE; cited from earlier work
aromatase = molecular target: aromatase; parameters: method as in PMID 11205867; conditions: human placental microsomes; cited from earlier work

Structure (SMILES): COc1cc(O)cc(O)c1C(=O)/C=C/c1ccc(Cl)cc1 [Compound 28]
- AKR1C3 Inhibition at 10 µM [%] (AKR1C3 [1]; 10 µM): 20.3% and 26.1 ± 2.0%

Structure (SMILES): O=C(/C=C/c1ccc(O)cc1)c1ccc(O)cc1O [Isoliquiritigenin (16), isoliquiritigenin, reference compound]
- IC50 (LNCaP): 13 µM
- IC50 (DU145): 11 µM
- inhibition at 10 µM (AKR1C3 [1]): 31.1 ± 3.2%
- 17β-HSD inhibition (17β-HSD): 10%

Structure (SMILES): O=C(O)c1cccc(Oc2ccccc2)c1 [3-phenoxybenzoic acid]
- IC50 (AKR1C3 [2]): 0.68 µM

Structure (SMILES): O=C(/C=C/c1ccc(O)cc1)c1c(O)cc(O)cc1O [Compound 29, naringenin chalcone]
- IC50 (aromatase): 2.6 µM
- AKR1C3 Inhibition at 10 µM [%] (AKR1C3 [1]): 40.6 ± 7.7%
- 17β-HSD inhibition (17β-HSD): 2.4%

Structure (SMILES): O=C(/C=C/c1ccc(F)cc1)c1c(O)cc(O)cc1O [Compound 26]
- AKR1C3 Inhibition at 10 µM [%] (AKR1C3 [1]): 68.5 ± 6.4%

Structure (SMILES): O=C(/C=C/c1ccc(Cl)cc1)c1c(O)cc(O)cc1O [Compound 22]
- AKR1C3 Inhibition at 10 µM [%] (AKR1C3 [1]): 70.8 ± 3.8%

Structure (SMILES): COc1cc(O)cc(O)c1C(=O)/C=C/c1ccc(F)cc1 [Compound 27]
- AKR1C3 Inhibition at 10 µM [%] (AKR1C3 [1]; 10 µM): 26.1% and 20.3 ± 8.4%

Structure (SMILES): COc1cc(O)cc(O)c1C(=O)/C=C/c1ccc(O)cc1 [Compound 24]
- AKR1C3 Inhibition at 10 µM [%] (AKR1C3 [1]): 24.6 ± 4.8%

Structure (SMILES): O=C(/C=C/c1ccc(O)c(O)c1)c1ccc(O)cc1O [Butein (17), butein, reference compound]
- inhibition at 10 µM (AKR1C3 [1]): 37.2 ± 1.4%

Reference: publication PMC8876231, “Analogues of Natural Chalcones as Efficient Inhibitors of AKR1C3” (Metabolites, 2022)
